From US20250230165A1, “HETEROCYCLIC COMPOUNDS FOR USE IN THE TREATMENT OF CANCER” (ARTIOS PHARMA LIMITED, priority 2021, published 2025)

molecular target: T1, Human Polθ polymerase domain (aa1820-2590) (Homo sapiens, UniProt O75417); assay: Polθ Polymerase Domain Kinact/KI Assay (PicoGreen); format: biochemical; conditions: 0.8 nM Polθ, 100 nM DNA substrate, kobs vs [I] fit for 2-step covalent inhibitor
T1 construct: Human Polθ polymerase domain (aa1820-2590) was expressed in E. coli; made in house; host or cells: E. coli
T1 sequence (O75417 1820-2590): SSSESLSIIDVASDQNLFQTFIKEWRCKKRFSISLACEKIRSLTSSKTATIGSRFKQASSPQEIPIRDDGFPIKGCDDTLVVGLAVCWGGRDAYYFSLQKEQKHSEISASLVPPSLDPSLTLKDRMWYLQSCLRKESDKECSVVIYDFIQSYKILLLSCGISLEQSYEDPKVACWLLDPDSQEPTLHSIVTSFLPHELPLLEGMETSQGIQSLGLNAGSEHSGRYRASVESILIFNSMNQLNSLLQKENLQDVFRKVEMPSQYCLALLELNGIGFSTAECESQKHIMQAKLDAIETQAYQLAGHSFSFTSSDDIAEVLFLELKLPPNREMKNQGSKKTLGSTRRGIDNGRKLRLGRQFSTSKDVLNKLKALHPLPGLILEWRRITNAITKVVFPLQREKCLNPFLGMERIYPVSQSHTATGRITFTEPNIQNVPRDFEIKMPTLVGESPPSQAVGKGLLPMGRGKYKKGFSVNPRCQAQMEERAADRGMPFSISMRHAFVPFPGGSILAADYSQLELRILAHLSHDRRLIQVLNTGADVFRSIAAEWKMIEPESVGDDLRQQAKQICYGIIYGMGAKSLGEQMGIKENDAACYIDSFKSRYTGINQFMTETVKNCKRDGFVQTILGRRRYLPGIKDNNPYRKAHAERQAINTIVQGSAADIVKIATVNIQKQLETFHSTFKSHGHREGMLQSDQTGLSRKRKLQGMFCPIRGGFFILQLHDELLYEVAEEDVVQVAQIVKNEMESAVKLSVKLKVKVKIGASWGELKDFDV
Method in brief: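 PicoGreen fluorescence read-out of primer extension; progress curves per inhibitor concentration fitted for kobs, then kobs vs [I] fitted to a two-step covalent model to give Kinact and KI. Conditions: 0.8 nM enzyme, 100 nM DNA substrate, […].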

Row | Kinact/Kl [M⁻¹ s⁻¹] | Structure (SMILES)
1 | 2.53e+06 | C=CC(=O)N1CCN(c2nc(CN3C[C@H]4CC(=O)N(c5cc(C(F)(F)F)cc(C)n5)[C@@H]4C(=O)N(C)c4cccc(F)c43)c[nH]2)CC1 [Example 125, (3aR,11aS)-5-((2-(4-acryloylpiperazin-1-yl)-1H-imidazol-4-yl)methyl)-6-fluoro-10-methyl-1-(6-methyl-4-(trifluoromethyl)pyridin-2-yl)-1,3a,4,5,10,11a-hexahydro-2H-benzo[b]pyrrolo[2,3-f][1,4]diazocine-2,11(3H)-dione]
2 | 1.03e+06 | C=CC(=O)N1Cc2nc(CN3C[C@H]4CC(=O)N(c5cc(C(F)(F)F)cc(C)n5)[C@@H]4C(=O)N(C)c4cccc(Cl)c43)cn2CC1C(F)F (mixture of isomers) [Example 243a, (3aR,11aS)-5-(((S/R)-7-acryloyl-6-(difluoromethyl)-5,6,7,8-tetrahydroimidazo[1,2-a]pyrazin-2-yl)methyl)-6-chloro-10-methyl-1-(6-methyl-4-(trifluoromethyl)pyridin-2-yl)-1,3a,4,5,10,11a-hexahydro-2H-benzo[b]pyrrolo[2,3-f][1,4]diazocine-2,11(3H)-dione]
3 | 1.3e+06 | C=CC(=O)N1Cc2nc(CN3C[C@H]4CC(=O)N(c5cc(C(F)(F)F)cc(C)n5)[C@@H]4C(=O)N(C)c4cccc(Cl)c43)ccc2C1CC#N (single isomer, unassigned) [Example 290b]
4 | 660000 | C=CC(=O)N1CC(N(C)C[C@H](O)CN2C[C@H]3CC(=O)N(c4cc(C(F)(F)F)cc(C)n4)[C@@H]3C(=O)N(C)c3cccc(Cl)c32)C1 (racemic) [Example 68, (3aR,11aS)-5-((S/R)-3-((1-acryloylazetidin-3-yl)(methyl)amino)-2-hydroxypropyl)-6-chloro-10-methyl-1-(6-methyl-4-(trifluoromethyl)pyridin-2-yl)-1,3a,4,5,10,11a-hexahydro-2H-benzo[b]pyrrolo[2,3-f][1,4]diazocine-2,11(3H)-dione]
5 | 2.49e+06 | C=CC(=O)N1CC2(CN(CCN3C[C@H]4CC(=O)N(c5cc(C(F)(F)F)cc(C)n5)[C@@H]4C(=O)N(C)c4cccc(Cl)c43)CC(=O)N2C)C1 [Example 111, (3aR,11aS)-5-(2-(2-acryloyl-5-methyl-6-oxo-2,5,8-triazaspiro[3.5]nonan-8-yl)ethyl)-6-chloro-10-methyl-1-(6-methyl-4-(trifluoromethyl)pyridin-2-yl)-1,3a,4,5,10,11a-hexahydro-2H-benzo[b]pyrrolo[2,3-f][1,4]diazocine-2,11(3H)-dione]
6 | 1.46e+06 | Cc1cc(C(F)(F)F)cc(N2C(=O)C[C@@H]3CN(CCCOC4CN(C(=O)/C(Cl)=C/CN(C)C)C4)c4c(F)cccc4N(C)C(=O)[C@H]32)n1 [Example 79, (3aR,11aS)-5-(3-((1-((Z)-2-chloro-4-(dimethylamino)but-2-enoyl)azetidin-3-yl)oxy)propyl)-6-fluoro-10-methyl-1-(6-methyl-4-(trifluoromethyl)pyridin-2-yl)-1,3a,4,5,10,11a-hexahydro-2H-benzo[b]pyrrolo[2,3-f][1,4]diazocine-2,11(3H)-dione]
7 | 1.05e+06 | C=CC(=O)N1CCOc2cc(CN3C[C@H]4CC(=O)N(c5cc(C(F)(F)F)cc(C)n5)[C@@H]4C(=O)N(C)c4cccc(Cl)c43)ccc21 [Example 281, (3aR,11aS)-5-((4-acryloyl-3,4-dihydro-2H-benzo[b][1,4]oxazin-7-yl)methyl)-6-chloro-10-methyl-1-(6-methyl-4-(trifluoromethyl)pyridin-2-yl)-1,3a,4,5,10,11a-hexahydro-2H-benzo[b]pyrrolo[2,3-f][1,4]diazocine-2,11(3H)-dione]
8 | 790000 | Cc1cc(C(F)(F)F)cc(N2C(=O)C[C@@H]3CN(Cc4cn5c(n4)CN(C(=O)CCl)C(C)C5)c4c(Cl)cccc4N(C)C(=O)[C@H]32)n1 (mixture of isomers) [Example 73b, (3aR,11aS)-6-chloro-5-(((S/R)-7-(2-chloroacetyl)-6-methyl-5,6,7,8-tetrahydroimidazo[1,2-a]pyrazin-2-yl)methyl)-10-methyl-1-(6-methyl-4-(trifluoromethyl)pyridin-2-yl)-1,3a,4,5,10,11a-hexahydro-2H-benzo[b]pyrrolo[2,3-f][1,4]diazocine-2,11(3H)-dione]
9 | 810000 | C=CC(=O)Nc1ccc(CN2C[C@H]3CC(=O)N(c4cc(C(F)(F)F)cc(C)n4)[C@@H]3C(=O)N(C)c3cccc(C)c32)cc1 [Example 87, N-(4-(((3aR,11aS)-6,10-dimethyl-1-(6-methyl-4-(trifluoromethyl)pyridin-2-yl)-2,11-dioxo-1,2,3,3a,4,10,11,11a-octahydro-5H-benzo[b]pyrrolo[2,3-f][1,4]diazocin-5-yl)methyl)phenyl)acrylamide]
10 | 1.24e+06 | C=CC(=O)N1Cc2ccc(CN3C[C@H]4CC(=O)N(c5cc(C(F)(F)F)cc(C)n5)[C@@H]4C(=O)N(C)c4cccc(Cl)c43)nc2[C@@H]1CC#N (racemic) [Example 289b, 2-((S/R)-6-acryloyl-2-(((3aR,11aS)-6-chloro-10-methyl-1-(6-methyl-4-(trifluoromethyl)pyridin-2-yl)-2,11-dioxo-1,2,3,3a,4,10,11,11a-octahydro-5H-benzo[b]pyrrolo[2,3-f][1,4]diazocin-5-yl)methyl)-6,7-dihydro-5H-pyrrolo[3,4-b]pyridin-7-yl)acetonitrile]
11 | 1.28e+06 | C=CC(=O)N1Cc2nc(CN3C[C@H]4CC(=O)N(c5cc(C(F)(F)F)cc(C)n5)[C@@H]4C(=O)N(C)c4cccc(C)c43)n(C)c2C1 [Example 241, (3aR,11aS)-5-((5-acryloyl-1-methyl-1,4,5,6-tetrahydropyrrolo[3,4-d]imidazol-2-yl)methyl)-6,10-dimethyl-1-(6-methyl-4-(trifluoromethyl)pyridin-2-yl)-1,3a,4,5,10,11a-hexahydro-2H-benzo[b]pyrrolo[2,3-f][1,4]diazocine-2,11(3H)-dione]
12 | 4.38e+06 | C/C=C(\CN(C)C)C(=O)N1CC(OCCCN2C[C@H]3CC(=O)N(c4cc(C(F)(F)F)cc(C)n4)[C@@H]3C(=O)N(C)c3cccc(C)c32)C1 [Example 194, (3aR,11aS)-5-(3-((1-((E)-2-((dimeth-ylamino)methyl)-but-2-enoyl)azeti-din-3-yl)oxy)prop-yl)-6,10-dimethyl-1-(6-methyl-4-(trifluoromethyl)-pyridin-2-yl)-1,3a,4,5,10,11a-hexahydro-2H-benzo[b]pyrrolo [2,3-f][1,4]diazo-cine-2,11(3H)-dione]
13 | 660000 | C=CC(=O)N1Cc2nc(CN3C[C@H]4CC(=O)N(c5cc(C(F)(F)F)cc(C)n5)[C@@H]4C(=O)N(C)c4cccc(Cl)c43)n(C)c2C1 [Example 242, (3aR,11aS)-5-((5-acryloyl-1-methyl-1,4,5,6-tetrahydropyrrolo[3,4-d]imidazol-2-yl)methyl)-6-chloro-10-methyl-1-(6-methyl-4-(trifluoromethyl)pyridin-2-yl)-1,3a,4,5,10,11a-hexahydro-2H-benzo[b]pyrrolo[2,3-f][1,4]diazocine-2,11(3H)-dione]
14 | 22000 | C=CC(=O)N1CCN2C[C@@H](CN3C[C@H]4CC(=O)N(c5cc(C(F)(F)F)cc(C)n5)[C@@H]4C(=O)N(C)c4cccc(F)c43)N(C)C[C@H]2C1 (single isomer, unassigned) [Example 140a]
15 | 110000 | C=CC(=O)N1CCN2CC(=O)N(CCN3C[C@H]4CC(=O)N(c5cc(C(F)(F)F)cc(C)n5)[C@@H]4C(=O)N(C)c4cccc(F)c43)C[C@H]2C1 [Example 48, (3aR,11aS)-5-(2-((R)-8-acryloyl-3-oxooctahydro-2H-pyrazino[1,2-a]pyrazin-2-yl)ethyl)-6-fluoro-10-methyl-1-(6-methyl-4-(trifluoromethyl)pyridin-2-yl)-1,3a,4,5,10,11a-hexahydro-2H-benzo[b]pyrrolo[2,3-f][1,4]diazocine-2,11(3H)-dione]
16 | 1.56e+06 | C=CC(=O)N1Cc2nc(CN3C[C@H]4CC(=O)N(c5cc(C(F)(F)F)cc(C)n5)[C@@H]4C(=O)N(C)c4cccc(C)c43)cn2C[C@H]1C(F)(F)F (racemic) [Example 322a, (3aR,11aS)-5-(((S/R)-7-acryloyl-6-(trifluoromethyl)-5,6,7,8-tetrahydro-imidazo[1,2-a]pyr-azin-2-yl)methyl)-6,10-dimethyl-1-(6-methyl-4-(trifluoro-methyl)pyridin-2-yl)-1,3a,4,5,10,11a-hexahydro-2H-benzo[b]pyrrolo [2,3-f][1,4]diazo-cine-2,11(3H)-dione]

Row | Structure (SMILES) | Kinact/Kl [M⁻¹ s⁻¹]
17 | C=CC(=O)N1CC2(CN(CCN3C[C@H]4CC(=O)N(c5cc(C(F)(F)F)cc(C)n5)[C@@H]4C(=O)N(C)c4cccc(F)c43)CC3COCCN32)C1 (single isomer, unassigned) [Example 24a] | 1.63e+06
